For 34 molecules, IC50 results are on record in US20250313563A1, “GLYCOGEN SYNTHASE KINASE 3 INHIBITORS AND USES THEREOF” (The Broad Institute, Inc., priority 2022, published 2025).

The target of assay [1] is GSK3b (GST-full length GSK3b) (Homo sapiens (Human), UniProt P49841). Put plainly: GSK3b TR-FRET kinase assay. Type of assay: biochemical. The method in brief:
(§1)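 Full-length GST-tagged human enzyme (1 nM) is exposed to test compound for 30 min before substrates are added. Phosphorylation of a primed biotinylated glycogen synthase peptide proceeds 100 min at room temperature at low ATP (4 μM α; 2 μM β) or high ATP (1 mM). Product is quantified by TR-FRET.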
In general terms: In TR-FRET formats the signal depends on donor and acceptor labels being close together.

In assay [2] the target is GSK3α (GST-full length GSK3α) (Homo sapiens (Human), UniProt P49840). In words: GSK3α TR-FRET kinase assay. Type of assay: biochemical. The method in brief:
as §1

Setting [3] is: 1 nM GSK3b, 2 μM ATP, 30 minute preincubation, geometric mean, read-out: GSK3-B TR-FRET BIOCHEMICAL (TR-FRET), GMean, IC50.
The mark [4] stands for this setting: 1 nM GSK3α, 4 μM ATP, 30 minute preincubation, geometric mean, read-out: GSK3-A TR-FRET BIOCHEMICAL (TR-FRET), GMean, IC50.
The mark [5] stands for this setting: 1 nM GSK3b, 2 μM ATP, 30 minute preincubation, read-out: GSK3-B TR-FRET BIOCHEMICAL (TR-FRET), IC50.
[6] abbreviates: 1 nM GSK3α, 4 μM ATP, 30 minute preincubation, read-out: GSK3-A TR-FRET BIOCHEMICAL (TR-FRET), IC50.
Setting [7] is: read-out: GSK3-B (TR-FRET 1 mM ATP), GMean, IC50, 1 mM ATP, geometric mean.
Where [8] appears, read: read-out: GSK3-A (TR-FRET 1 mM ATP), GMean, IC50, 1 mM ATP, geometric mean.
Setting [9] is: 1 nM GSK3b, 2 μM ATP, 30 minute preincubation, Table 16, read-out: GSK3-B TR-FRET BIOCHEMICAL (TR-FRET).
[10] abbreviates: 1 nM GSK3α, 4 μM ATP, 30 minute preincubation, Table 16, read-out: GSK3-A TR-FRET BIOCHEMICAL (TR-FRET).
Setting [11] is: GSK3-B (TR-FRET 1 mM ATP), GMean, IC50, 1 mM ATP, geometric mean.
The mark [12] stands for this setting: GSK3-A (TR-FRET 1 mM ATP), GMean, IC50, 1 mM ATP, geometric mean.

Like-named read-outs stand apart in the source and are kept apart here.

Sequence of GSK3α (GST-full length GSK3α) (P49840 whole entry): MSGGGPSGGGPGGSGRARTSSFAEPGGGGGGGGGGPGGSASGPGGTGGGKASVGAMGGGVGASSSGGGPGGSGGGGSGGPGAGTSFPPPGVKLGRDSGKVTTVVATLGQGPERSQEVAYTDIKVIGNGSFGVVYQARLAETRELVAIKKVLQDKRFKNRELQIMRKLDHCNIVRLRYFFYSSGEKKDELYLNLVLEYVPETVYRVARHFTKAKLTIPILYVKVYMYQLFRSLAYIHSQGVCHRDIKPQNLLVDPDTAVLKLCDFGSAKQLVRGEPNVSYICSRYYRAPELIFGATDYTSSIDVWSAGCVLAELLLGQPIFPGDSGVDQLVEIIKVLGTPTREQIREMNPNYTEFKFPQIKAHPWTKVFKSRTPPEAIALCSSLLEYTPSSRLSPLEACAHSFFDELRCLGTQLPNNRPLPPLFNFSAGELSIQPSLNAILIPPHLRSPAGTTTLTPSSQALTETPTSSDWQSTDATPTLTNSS
Sequence of GSK3b (GST-full length GSK3b) (P49841 whole entry): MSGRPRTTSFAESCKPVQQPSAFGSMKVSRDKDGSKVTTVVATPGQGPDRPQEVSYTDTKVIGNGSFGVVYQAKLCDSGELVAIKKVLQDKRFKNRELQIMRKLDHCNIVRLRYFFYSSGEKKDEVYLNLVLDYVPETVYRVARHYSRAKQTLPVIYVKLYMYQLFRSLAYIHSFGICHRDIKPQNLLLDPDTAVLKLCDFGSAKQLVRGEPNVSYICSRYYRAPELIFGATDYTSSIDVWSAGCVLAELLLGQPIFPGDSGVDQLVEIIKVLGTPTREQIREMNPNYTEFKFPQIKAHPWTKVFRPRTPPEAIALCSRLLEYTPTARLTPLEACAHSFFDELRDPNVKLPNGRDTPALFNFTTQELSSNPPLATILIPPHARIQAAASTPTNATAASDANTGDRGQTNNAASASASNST

`CCC1(c2cccc(-c3ccnn3C)c2)C2=C(CC3(CCOC3)NC2=O)Nc2n[nH]cc21` (stereo not shown) [Compound 948016]: the IC50 in assay [1] (setting [3]) and in assay [2] (setting [4]) was > 5000 nM each time.

`CC[C@]1(c2cccc(-c3ccnn3C)c2)C2=C(CC3(CCCC3)NC2=O)Nc2n[nH]cc21` [Compound 948018]: the IC50 in assay [1] (setting [3]) and in assay [2] (setting [4]) was ≤ 100 nM in each case.

In the case of `CC[C@@]1(c2cccc(-c3ccnn3C)c2)C2=C(CC3(CCCC3)NC2=O)Nc2n[nH]cc21` [Compound 948019], the figures for the IC50 in assay [1] (setting [3]) and in assay [2] (setting [4]) were > 5000 nM and 1000 to 5000 nM, respectively.

For the molecule `CCC1(c2cccc(-c3ccncc3Cl)c2)C2=C(CC(C)(C)NC2=O)Nc2n[nH]cc21` (stereo not shown) [Compound 948020], the IC50 in assay [1] (setting [3]) and in assay [2] (setting [4]) was 100 to 1000 nM throughout.

Turning to `CCC1(c2cccc(-c3ccncc3C)c2)C2=C(CC3(CCCC3)NC2=O)Nc2n[nH]cc21` (stereo not shown) [Compound 948021], the results for the IC50 in assay [1] (setting [3]) and in assay [2] (setting [4]) were > 5000 nM and 100 to 1000 nM, respectively.

On to `CC1(C)CC(=O)C2=C(C1)Nc1n[nH]cc1[C@]21COC2(CN(C(=O)Cc3ccccc3)C2)C1` [Compound 948036], for which the IC50 in assay [1] (setting [5]) and in assay [2] (setting [6]) was 100 to 1000 nM throughout.

Turning to `CC1(C)CC(=O)C2=C(C1)Nc1n[nH]cc1[C@@]21COC2(CN(C(=O)Cc3ccccc3)C2)C1` [Compound 948037], the IC50 in assay [1] (setting [5]), in assay [1] (setting [7]), in assay [2] (setting [6]) and in assay [2] (setting [8]) was ≤ 100 nM in each case.

`Cc1ccc(C(=O)N2CC3(C2)CC2(CO3)C3=C(CC(C)(C)CC3=O)Nc3n[nH]cc32)cc1C` (stereo not shown) [Compound 948038]: the IC50 was 100 to 1000 nM in assay [1] (setting [7]) and ≤ 100 nM in assay [2] (setting [8]).

Consider `Cc1ccc(C(=O)N2CC3(C2)C[C@]2(CO3)C3=C(CC(C)(C)CC3=O)Nc3n[nH]cc32)cc1C` [Compound 948039], for which the IC50 in assay [1] (setting [5]) is 1000 to 5000 nM; in assay [2] (setting [6]), 100 to 1000 nM.

`CC(=O)N1CCC2(C1)CC1(CO2)C2=C(CC(C)(C)CC2=O)Nc2n[nH]cc21` (stereo not shown) [Compound 948040]: the IC50 in assay [1] (setting [5]) was 100 to 1000 nM; in assay [2] (setting [6]), ≤ 100 nM.

On to `CCC1(c2cccc(C(C)c3ncccn3)c2)C2=C(CC(C)(C)CC2=O)Nc2n[nH]cc21` (stereo not shown) [Compound 948057], for which the IC50 in assay [1] (setting [9]) fell in the range of 1000 to 5000 nM; in assay [2] (setting [10]) it was 100 to 1000 nM.

As to `CC[C@]1(c2cccc([C@H](C)c3ncccn3)c2)C2=C(CC(C)(C)CC2=O)Nc2n[nH]cc21` [Compound 948060], the IC50 in assay [1] (setting [9]) is ≤ 100 nM; in assay [1] (setting [7]), 1000 to 5000 nM; in assay [2] (setting [10]), ≤ 100 nM; in assay [2] (setting [8]) it was 100 to 1000 nM.

With `CCC1(c2cccc(C(C)c3ncccn3)c2)C2=C(CC(C)(C)CC2=O)Nc2n[nH]cc21` (stereo not shown) [Compound 948061], the IC50 is 1000 to 5000 nM in assay [1] (setting [9]) and 100 to 1000 nM in assay [2] (setting [10]).

Consider `CCC1(c2cccc(-c3ccnc(C)n3)c2)C2=C(CC(C)(C)CC2=O)Nc2n[nH]cc21` (stereo not shown) [Compound 948088], for which the IC50 in assay [1] (setting [9]) is 1000 to 5000 nM; in assay [2] (setting [10]), 100 to 1000 nM.

For the molecule `CCC1(c2cccc(-c3nc(C)ncc3C)c2)C2=C(CC(C)(C)CC2=O)Nc2n[nH]cc21` (stereo not shown) [Compound 948091], the IC50 in assay [1] (setting [9]) was 100 to 1000 nM; in assay [2] (setting [10]) it was ≤ 100 nM.

Consider `CCC1(c2cccc(-c3ccnc(OC)n3)c2)C2=C(CC(C)(C)CC2=O)Nc2n[nH]cc21` (stereo not shown) [Compound 948092], for which the IC50 in assay [1] (setting [9]) and in assay [2] (setting [10]) was ≤ 100 nM throughout.

Consider `CC1(C)CC(=O)C2=C(C1)Nc1n[nH]cc1C21CCN(S(=O)(=O)c2ccc(F)c(Cl)c2)CC1` [Compound 948117], for which the IC50 in assay [1] (setting [9]) and in assay [2] (setting [10]) was ≤ 100 nM throughout.

Consider `CC1(C)CC(=O)C2=C(C1)Nc1n[nH]cc1C21CCN(S(=O)(=O)c2cccc(Cl)c2F)CC1` [Compound 948118], for which the IC50 is ≤ 100 nM in assay [1] (setting [9]), 100 to 1000 nM in assay [1] (setting [11]), ≤ 100 nM in assay [2] (setting [10]) and ≤ 100 nM in assay [2] (setting [12]).

Take `CC1(C)CC(=O)C2=C(C1)Nc1n[nH]cc1C21CCN(S(=O)(=O)c2ccc(F)c(F)c2)CC1` [Compound 948119]: the IC50 in assay [1] (setting [9]) and in assay [2] (setting [10]) was ≤ 100 nM in each case.

Regarding `CC1(C)CC(=O)C2=C(C1)Nc1n[nH]cc1C21CCN(S(=O)(=O)c2cnc3cccnn23)CC1` [Compound 948120], the IC50 in assay [1] (setting [9]) is ≤ 100 nM; in assay [1] (setting [11]), 1000 to 5000 nM; in assay [2] (setting [10]), ≤ 100 nM; in assay [2] (setting [12]) it was 100 to 1000 nM.

For `CC1(C)CC(=O)C2=C(C1)Nc1n[nH]cc1C21CCN(S(=O)(=O)c2cc(F)ccc2F)CC1` [Compound 948121], the IC50 is ≤ 100 nM in assay [1] (setting [9]), 100 to 1000 nM in assay [1] (setting [11]), ≤ 100 nM in assay [2] (setting [10]) and 100 to 1000 nM in assay [2] (setting [12]).

On to `CC1(C)CC(=O)C2=C(C1)Nc1n[nH]cc1C21CCN(S(=O)(=O)c2cc(Cl)ccc2Cl)CC1` [Compound 948122], for which the IC50 in assay [1] (setting [9]) was 100 to 1000 nM; in assay [2] (setting [10]) it was ≤ 100 nM.

As for `CC1(C)CC(=O)C2=C(C1)Nc1n[nH]cc1C21CCN(S(=O)(=O)c2cnn(CC(F)(F)F)c2)CC1` [Compound 948123], the IC50 in assay [1] (setting [9]) was ≤ 100 nM; in assay [1] (setting [11]), 100 to 1000 nM; in assay [2] (setting [10]), ≤ 100 nM; in assay [2] (setting [12]), 100 to 1000 nM.

With `CCC1(c2cccc(-c3ccncc3Cl)c2)C2=C(CC(C)(C)NC2=O)Nc2n[nH]cc21` (stereo not shown) [Compound 948142], the IC50 is ≤ 100 nM in assay [1] (setting [3]), 100 to 1000 nM in assay [1] (setting [7]), ≤ 100 nM in assay [2] (setting [4]) and ≤ 100 nM in assay [2] (setting [8]).

As for `CC[C@]1(c2cccc(-c3ccnc4nc(C)ccc34)c2)C2=C(CC(C)(C)NC2=O)Nc2n[nH]cc21` [Compound 948143], the IC50 in assay [1] (setting [3]) was 100 to 1000 nM; in assay [2] (setting [4]), ≤ 100 nM.

Take `CCC1(c2cccc(-c3c(F)cncc3OC)c2)C2=C(CC(C)(C)NC2=O)Nc2n[nH]cc21` (stereo not shown) [Compound 948145]: the IC50 in assay [1] (setting [3]) is > 5000 nM; in assay [2] (setting [4]) it was 100 to 1000 nM.

Consider `CC[C@@]1(c2cccc(-c3ccnc(C)c3)c2)C2=C(C[C@@]3(CCCOC3)NC2=O)Nc2n[nH]cc21` [Compound 948146], for which the IC50 in assay [1] (setting [3]) is > 5000 nM; in assay [2] (setting [4]) it was 1000 to 5000 nM.

On to `CCC1(c2cccc(-c3ccncc3C)c2)C2=C(CC(C)(COC)NC2=O)Nc2n[nH]cc21` (stereo not shown) [Compound 948147], for which the IC50 in assay [1] (setting [3]) and in assay [2] (setting [4]) was ≤ 100 nM in each case.

Take `CCC1(c2cccc(-c3ccnc(C)c3)c2)C2=C(CC3(CCOC3)NC2=O)Nc2n[nH]cc21` (stereo not shown) [Compound 948148]: the results for the IC50 in assay [1] (setting [3]) and in assay [2] (setting [4]) were > 5000 nM and 1000 to 5000 nM, respectively.

With `CC[C@]1(c2cccc(-c3ccnc(C)c3)c2)C2=C(C[C@]3(CCOC3)NC2=O)Nc2n[nH]cc21` [Compound 948149], the results for the IC50 in assay [1] (setting [3]) and in assay [2] (setting [4]) were 100 to 1000 nM and ≤ 100 nM, respectively.

In the case of `CCC1(c2cccc(-c3ccnc4nc(C)ccc34)c2)C2=C(CC(C)(C)NC2=O)Nc2n[nH]cc21` (stereo not shown) [Compound 948151], the values for the IC50 in assay [1] (setting [3]) and in assay [2] (setting [4]) were > 5000 nM and 100 to 1000 nM, respectively.

`CCC1(c2cccc(-c3ccnc(C)c3)c2)C2=C(CC3(CCCOC3)NC2=O)Nc2n[nH]cc21` (stereo not shown) [Compound 948152]: the figures for the IC50 in assay [1] (setting [3]) and in assay [2] (setting [4]) were 100 to 1000 nM and ≤ 100 nM, respectively.

For the molecule `CCC1(c2cccc(-c3ccnc(C)c3)c2)C2=C(CC3(CCCOC3)NC2=O)Nc2n[nH]cc21` (stereo not shown) [Compound 948153], the IC50 in assay [1] (setting [3]) and in assay [2] (setting [4]) was > 5000 nM each time.

Turning to `CC1(C)CC(=O)C2=C(C1)Nc1n[nH]cc1[C@]21COC2(CN(C(=O)C(F)(F)F)C2)C1` [Compound 948156], the IC50 in assay [1] (setting [5]) was 100 to 1000 nM; in assay [2] (setting [6]) it was ≤ 100 nM.
